Data: ChEMBL document CHEMBL5550161, “Discovery of novel small molecules targeting the USP21/JAK2/STAT3 axis for the treatment of triple-negative breast cancer” (Eur J Med Chem, 2024)
Calls of active or inactive are those of the source. No cut-off for these calls is given here.

Key:
MDA-MB-231 [1] = assay: Induction of apoptosis in human MDA-MB-231 cells assessed as late apoptotic cells at 1.6 uM incubated for 24 hrs by Annexin V-FITC/PI staining based flow cytometry (reference value: 1.23 %); assay type: functional
[2] = Toxicity in Balb/c nude mouse assessed as histopathological change in lung at 60 mg/kg, ip bid for 14 days consecutively; assay type: organism-based; conditions: in vivo, 336 h, time 14 day
HCC1806 [3] = assay: Synergistic inhibition of cell proliferation in human HCC1806 cells assessed as combination index at 0.35 uM in presence of PTX; assay type: functional
MDA-MB-231 [4] = assay: Induction of apoptosis in human MDA-MB-231 cells assessed as necrotic cells at 1.6 uM incubated for 24 hrs by Annexin V-FITC/PI staining based flow cytometry (reference value: 0.07 %); assay type: functional
HCC1806 [5] = assay: Induction of apoptosis in human HCC1806 cells assessed as early apoptotic cells at 1.6 uM incubated for 24 hrs by Annexin V-FITC/PI staining based flow cytometry (reference value: 0.67 %); assay type: functional
MDA-MB-231 [6] = assay: Induction of apoptosis in human MDA-MB-231 cells assessed as early apoptotic cells at 1.6 uM incubated for 24 hrs by Annexin V-FITC/PI staining based flow cytometry (reference value: 1.16 %); assay type: functional
HCC1806 [7] = assay: Induction of apoptosis in human HCC1806 cells assessed as viable cells at 1.6 uM incubated for 24 hrs by Annexin V-FITC/PI staining based flow cytometry (reference value: 98.95 %); assay type: functional; conditions: read-out: Activity
MDA-MB-231 [8] = assay: Induction of apoptosis in human MDA-MB-231 cells assessed as late apoptotic cells at 0.4 uM incubated for 24 hrs by Annexin V-FITC/PI staining based flow cytometry (reference value: 1.23 %); assay type: functional
[9] = Toxicity in Balb/c nude mouse assessed as histopathological change in kidney at 60 mg/kg, ip bid for 14 days consecutively; assay type: organism-based; conditions: in vivo, 336 h, time 14 day
HCC1806 [10] = assay: Antitumor activity against human HCC1806 cells xenografted in Balb/c mouse assessed as decrease in STAT3 level at 40 to 60 mg/kg, ip bid measured after 14 days by immunofluorescence based analysis; assay type: functional, organism-based; conditions: dose 40-60 mg/kg, time 14.0 day
[11] = Toxicity in Balb/c nude mouse assessed as histopathological change in spleen at 60 mg/kg, ip bid for 14 days consecutively; assay type: organism-based; conditions: in vivo, 336 h, time 14 day
[12] = Cmax in Sprague-Dawley rat at 4 mg/kg, ip; assay type: ADME, organism-based; conditions: in vivo
MDA-MB-231 [13] = assay: Induction of apoptosis in human MDA-MB-231 cells assessed as necrotic cells at 0.1 uM incubated for 24 hrs by Annexin V-FITC/PI staining based flow cytometry (reference value: 0.07 %); assay type: functional
HCC1806 [14] = assay: Anti-proliferative activity against human HCC1806 cells assessed as cell growth inhibition incubated for 72 hrs by MTT assay; assay type: functional, cell-based; conditions: HCC1806, 72 h
MDA-MB-231 [15] = assay: Induction of apoptosis in human MDA-MB-231 cells assessed as ROS production rate at 0.2 uM incubated for 24 hrs by DCFH-DA staining based flow cytometry (reference value: 0.28 %); assay type: functional
MDA-MB-231 [16] = assay: Induction of apoptosis in human MDA-MB-231 cells assessed as necrotic cells at 0.8 uM incubated for 24 hrs by Annexin V-FITC/PI staining based flow cytometry (reference value: 0.07 %); assay type: functional
HCC1806 [17] = assay: Induction of apoptosis in human HCC1806 cells assessed as ROS production rate at 0.4 uM incubated for 24 hrs by DCFH-DA staining based flow cytometry (reference value: 0.23 %); assay type: functional
MDA-MB-231 [18] = assay: Induction of apoptosis in human MDA-MB-231 cells assessed as late apoptotic cells at 0.1 uM incubated for 24 hrs by Annexin V-FITC/PI staining based flow cytometry (reference value: 1.23 %); assay type: functional
HCC1806 [19] = assay: Induction of apoptosis in human HCC1806 cells assessed as necrotic cells at 0.4 uM incubated for 24 hrs by Annexin V-FITC/PI staining based flow cytometry (reference value: 0.15 %); assay type: functional
HCC1806 [20] = assay: Induction of apoptosis in human HCC1806 cells assessed as viable cells at 0.4 uM incubated for 24 hrs by Annexin V-FITC/PI staining based flow cytometry (reference value: 98.95 %); assay type: functional; conditions: read-out: Activity
HCC1806 [21] = assay: Inhibition of cell invasion in human HCC1806 cells; assay type: functional, cell-based; conditions: dose 0.05-2 µM
HCC1806 [22] = assay: Antitumor activity against human HCC1806 cells xenografted in Balb/c mouse assessed as decrease in Bcl-2 level at 40 to 60 mg/kg, ip bid measured after 14 days by IHC analysis; assay type: functional, organism-based; conditions: dose 40-60 mg/kg, time 14.0 day
HCC1806 [23] = assay: Antitumor activity against human HCC1806 cells xenografted in Balb/c mouse assessed as increase in E-cadherin level at 40 to 60 mg/kg, ip bid measured after 14 days by IHC analysis; assay type: functional, organism-based; conditions: dose 40-60 mg/kg, time 14.0 day
HCC1806 [24] = assay: Induction of apoptosis in human HCC1806 cells assessed as late apoptotic cells at 0.1 uM incubated for 24 hrs by Annexin V-FITC/PI staining based flow cytometry (reference value: 0.23 %); assay type: functional

COc1cc(Nc2cc(F)ccc2C(=O)NCCc2c[nH]c3c(F)ccc(F)c23)cc(OC)c1OC
Activity (MDA-MB-231 [1]): 4.95% | Activity [2]: Non-Toxic | CI (HCC1806 [3]): <1 | Activity (MDA-MB-231 [4]): 0.09% | Activity (HCC1806 [5]): 4.81% | Activity (MDA-MB-231 [6]): 7.55% | viability at 1.6 µM (HCC1806 [7]): 92.9% | Activity (MDA-MB-231 [8]): 1.83% | Activity [9]: Non-Toxic | Activity (HCC1806 [10]): Active | Activity [11]: Non-Toxic | Cmax [12]: 229 ng/mL | Activity (MDA-MB-231 [13]): 0.19% | IC50 (HCC1806 [14]): 0.25 µM | Activity (MDA-MB-231 [15]): 1.06% | Activity (MDA-MB-231 [16]): 0.11% | Activity (HCC1806 [17]): 5% | Activity (MDA-MB-231 [18]): 1.23% | Activity (HCC1806 [19]): 0.28% | viability at 0.4 µM (HCC1806 [20]): 96% | inhibition (HCC1806 [21]): Active | Activity (HCC1806 [22]): Active | Activity (HCC1806 [23]): Active | Activity (HCC1806 [24]): 0.29%
